Data taken from patent US20230278996A1, “YKL-40 INHIBITORS AND THEIR THERAPEUTIC APPLICATIONS” (Molecure S.A., priority 2022, published 2023).

target: YKL-40 (Homo sapiens (Human), UniProt P36222); test: YKL-40:4 assay, competitive chitin binding site AlphaScreen; conditions: competition with biotinylated compound 4 (20 nM), YKL-40-histag 2.5 nM
Sequence (P36222 22-383): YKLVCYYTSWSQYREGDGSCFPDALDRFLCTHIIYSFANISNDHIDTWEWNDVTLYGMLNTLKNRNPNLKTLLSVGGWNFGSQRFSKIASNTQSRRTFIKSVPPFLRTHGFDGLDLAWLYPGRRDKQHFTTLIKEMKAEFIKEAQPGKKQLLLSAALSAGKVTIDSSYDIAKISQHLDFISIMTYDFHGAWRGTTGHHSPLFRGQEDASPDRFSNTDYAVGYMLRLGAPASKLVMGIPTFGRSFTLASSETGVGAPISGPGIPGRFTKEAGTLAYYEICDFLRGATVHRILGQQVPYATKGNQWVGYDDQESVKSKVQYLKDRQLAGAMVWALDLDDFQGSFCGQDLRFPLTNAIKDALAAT

| SMILES | IC50 |
| --- | --- |
| CC(C)C[C@H]1CN(C2CCN(c3ccccn3)CC2)[C@@H](Cc2ccc(Cl)cc2)CN1C(=O)OC(C)(C)C [Example 2e, tert-butyl (2S,5S)-5-(4-chlorobenzyl)-2-isobutyl-4-(1-(pyridin-2-yl)piperidin-4-yl)piperazine-1-carboxylate] | > 100000 nM |
| C[C@H]1CN(C2CCN(C(=O)OC(C)(C)C)CC2)[C@@H](Cc2ccc(Cl)cc2)CO1 [Example 8d, tert-butyl 4-((2S,5S)-5-(4-chlorobenzyl)-2-methylmorpholino)piperidine-1-carboxylate] | > 100000 nM |
| C[C@H]1CN(C2CCN(c3cccc(Cl)n3)CC2)[C@@H](Cc2ccc(Cl)cc2)CO1 [Example 14, (2S,5S)-5-(4-chlorobenzyl)-4-(1-(6-chloropyridin-2-yl)piperidin-4-yl)-2-methylmorpholine 2,2,2-trifluoroacetate] | 1000 to 10000 nM |
| C[C@H]1CN(C2CCN(c3ccnc(F)c3)CC2)[C@@H](Cc2ccc(Cl)cc2)CO1 [Example 15, (2S,5S)-5-(4-chlorobenzyl)-4-(1-(2-fluoropyridin-4-yl)piperidin-4-yl)-2-methylmorpholine 2,2,2-trifluoroacetate] | 1000 to 10000 nM |
| Cc1cccnc1N1CCC(N2C[C@H](C)OC[C@@H]2Cc2ccc(Cl)cc2)CC1 [Example 16, (2S,5S)-5-(4-chlorobenzyl)-2-methyl-4-(1-(3-methylpyridin-2-yl)piperidin-4-yl)morpholine 2,2,2-trifluoroacetate] | > 100000 nM |
| C[C@H]1CN(C2CCN(c3cccc(C#N)n3)CC2)[C@@H](Cc2ccc(Cl)cc2)CO1 [Example 18, 6-(4-((2S,5S)-5-(4-chlorobenzyl)-2-methylmorpholino)piperidin-1-yl)picolinonitrile 2,2,2-trifluoroacetate] | > 100000 nM |
| C[C@H]1CN(C2CCN(c3ccc(C#N)cn3)CC2)[C@@H](Cc2ccc(Cl)cc2)CO1 [Example 19, 6-(4-((2S,5S)-5-(4-chlorobenzyl)-2-methylmorpholino)piperidin-1-yl)nicotinonitrile 2,2,2-trifluoroacetate] | > 100000 nM |
| C[C@H]1CN(C2CCN(c3cc(C(F)(F)F)ccn3)CC2)[C@@H](Cc2ccc(Cl)cc2)CO1 [Example 20, (2S,5S)-5-(4-chlorobenzyl)-2-methyl-4-(1-(4-(trifluoromethyl)pyridin-2-yl)piperidin-4-yl)morpholine 2,2,2-trifluoroacetate] | 1000 to 10000 nM |
| C[C@H]1CN(C2CCN(c3ncccc3Cl)CC2)[C@@H](Cc2ccc(Cl)cc2)CO1 [Example 23, (2S,5S)-5-(4-chlorobenzyl)-4-(1-(3-chloropyridin-2-yl)piperidin-4-yl)-2-methylmorpholine 2,2,2-trifluoroacetate] | 1000 to 10000 nM |
| C[C@H]1CN(C2CCN(c3cc(F)ncn3)CC2)[C@@H](Cc2ccc(Cl)cc2)CO1 [Example 24, (2S,5S)-5-(4-chlorobenzyl)-4-(1-(6-fluoropyrimidin-4-yl)piperidin-4-yl)-2-methylmorpholine 2,2,2-trifluoroacetate] | > 100000 nM |
| C[C@H]1CN(C2CCN(c3ncc(F)cc3F)CC2)[C@@H](Cc2ccc(Cl)cc2)CO1 [Example 25, (2S,5S)-5-(4-chlorobenzyl)-4-(1-(3,5-difluoropyridin-2-yl)piperidin-4-yl)-2-methylmorpholine 2,2,2-trifluoroacetate] | > 100000 nM |
| C[C@H]1CN(C2CCN(c3ccncn3)CC2)[C@@H](Cc2ccc(Cl)cc2)CO1 [Example 26, (2S,5S)-5-(4-chlorobenzyl)-2-methyl-4-(1-(pyrimidin-4-yl)piperidin-4-yl)morpholine 2,2,2-trifluoroacetate] | > 100000 nM |
| C[C@H]1CN(C2CCN(c3cccnc3)CC2)[C@@H](Cc2ccc(Cl)cc2)CO1 [Example 27, (2S,5S)-5-(4-chlorobenzyl)-2-methyl-4-(1-(pyridin-3-yl)piperidin-4-yl)morpholine 2,2,2-trifluoroacetate] | > 100000 nM |
| C[C@H]1CN(C2CCN(c3ccncc3)CC2)[C@@H](Cc2ccc(Cl)cc2)CO1 [Example 28, (2S,5S)-5-(4-chlorobenzyl)-2-methyl-4-(1-(pyridin-4-yl)piperidin-4-yl)morpholine 2,2,2-trifluoroacetate] | > 100000 nM |
| Cc1cnnc(N2CCC(N3C[C@H](C)OC[C@@H]3Cc3ccc(Cl)cc3)CC2)c1 [Example 30, (2S,5S)-5-(4-chlorobenzyl)-2-methyl-4-(1-(5-methylpyridazin-3-yl)piperidin-4-yl)morpholine 2,2,2-trifluoroacetate] | 1000 to 10000 nM |
| CC1CC(N2C[C@H](C)OC[C@@H]2Cc2ccc(Cl)cc2)CCN1c1cc(Cl)ccn1 (stereo partly drawn) [Example 33, (2S,5S)-5-(4-chlorobenzyl)-4-(1-(4-chloropyridin-2-yl)-2-methylpiperidin-4-yl)-2-methylmorpholine 2,2,2-trifluoroacetate] | 1000 to 10000 nM |

Other lines, results leading:

| IC50 | SMILES |
| --- | --- |
| 1000 to 10000 nM | CC1CC(N2C[C@H](C)OC[C@@H]2Cc2ccc(Cl)cc2)CCN1c1cc(Cl)ccn1 (single isomer, unassigned) [Example 31, 2,2,2-trifluoroacetate] |
| < 100 nM | CC1CC(N2C[C@H](C)OC[C@@H]2Cc2ccc(Cl)cc2)CCN1c1cc(Cl)ccn1 (single isomer, unassigned) [Example 32, 2,2,2-trifluoroacetate] |
| 100 to 1000 nM | COCCOCCOCCOCCOCCOCCOCCOCCOCCOCCOCCOCCC(=O)OC[C@H]1CN(C2CCN(c3ccccn3)CC2)[C@@H](Cc2ccc(Cl)cc2)CO1 [Example 7, ((2R,5S)-5-(4-chlorobenzyl)-4-(1-(pyridin-2-yl)piperidin-4-yl)morpholin-2-yl)methyl 2,5,8,11,14,17,20,23,26,29,32,35-dodecaoxaoctatriacontan-38-oate 2,2,2-trifluoroacetate] |
| 1000 to 10000 nM | C[C@H]1CN(C2CCN(c3ccc(F)cn3)CC2)[C@@H](Cc2ccc(Cl)cc2)CO1 [Example 9, (2S,5S)-5-(4-chlorobenzyl)-4-(1-(5-fluoropyridin-2-yl)piperidin-4-yl)-2-methylmorpholine 2,2,2-trifluoroacetate] |
| 100 to 1000 nM | C[C@H]1CN(C2CCN(c3ccc(Cl)cn3)CC2)[C@@H](Cc2ccc(Cl)cc2)CO1 [Example 11, (2S,5S)-5-(4-chlorobenzyl)-4-(1-(5-chloropyridin-2-yl)piperidin-4-yl)-2-methylmorpholine 2,2,2-trifluoroacetate] |
| 1000 to 10000 nM | C[C@H]1CN(C2CCN(c3cnccn3)CC2)[C@@H](Cc2ccc(Cl)cc2)CO1 [Example 12, (2S,5S)-5-(4-chlorobenzyl)-2-methyl-4-(1-(pyrazin-2-yl)piperidin-4-yl)morpholine 2,2,2-trifluoroacetate] |
| 100 to 1000 nM | C[C@H]1CN(C2CCN(c3ncccc3C#N)CC2)[C@@H](Cc2ccc(Cl)cc2)CO1 [Example 22, 2-(4-((2S,5S)-5-(4-chlorobenzyl)-2-methylmorpholino)piperidin-1-yl)nicotinonitrile 2,2,2-trifluoroacetate] |
| 100 to 1000 nM | COc1ccnc(N2CCC(N3C[C@H](C)OC[C@@H]3Cc3ccc(Cl)cc3)CC2)c1 [Example 29, (2S,5S)-5-(4-chlorobenzyl)-4-(1-(4-methoxypyridin-2-yl)piperidin-4-yl)-2-methylmorpholine 2,2,2-trifluoroacetate] |
| 100 to 1000 nM | CC1CC(N2C[C@H](C)OC[C@@H]2Cc2ccc(Cl)cc2)CCN1c1cc(Cl)ccn1 (stereo partly drawn) [Example 34, (2S,5S)-5-(4-chlorobenzyl)-4-(1-(4-chloropyridin-2-yl)-2-methylpiperidin-4-yl)-2-methylmorpholine 2,2,2-trifluoroacetate] |
